Data as given in ChEMBL document CHEMBL3797105, “Investigation of triazole-linked indole and oxindole glycoconjugates as potential anticancer agents: novel Akt/PKB signaling pathway inhibitors” (Medchemcomm, 2016).

Assays:
HeLa = assay: Cytotoxicity against human HeLa cells after 48 hrs by sulforhodamine B assay; type: functional, cell-based
[1] = Cytotoxicity against human DU145 cells after 48 hrs by sulforhodamine B assay; type: functional, cell-based; conditions: DU-145, 48 h
A549 = assay: Cytotoxicity against human A549 cells after 48 hrs by sulforhodamine B assay; type: functional, cell-based; conditions: A549, 48 h
[2] = Cytotoxicity against mouse NIH/3T3 cells after 48 hrs by sulforhodamine B assay; conditions: NIH3T3, 48 h
MCF7 = assay: Cytotoxicity against human MCF7 cells after 48 hrs by sulforhodamine B assay; type: functional, cell-based; conditions: MCF7, 48 h

SMILES	IC50 (HeLa)	IC50 [1]	IC50 (A549)	IC50 [2]	IC50 (MCF7)
COc1ccc2c(c1)c(/C=C1/C(=O)Nc3ccc(F)cc31)cn2Cc1cn([C@@H]2O[C@H](COC(C)=O)[C@@H](OC(C)=O)[C@H](OC(C)=O)[C@H]2OC(C)=O)nn1	> 200 µM	> 200 µM	> 200 µM	> 200 µM	> 200 µM
CC(=O)OC[C@H]1O[C@@H](n2cc(CN3C(=O)/C(=C/c4ccccn4)c4ccccc43)nn2)[C@H](OC(C)=O)[C@@H](OC(C)=O)[C@@H]1OC(C)=O	51.7 µM	48.3 µM	26.1 µM	> 100 µM	32.1 µM
CC(=O)OC[C@H]1O[C@@H](n2cc(CN3C(=O)/C(=C/c4ccc5ccccc5c4)c4ccccc43)nn2)[C@H](OC(C)=O)[C@@H](OC(C)=O)[C@@H]1OC(C)=O	> 100 µM	43.7 µM	30.9 µM	28.4 µM	32.7 µM
CC(=O)OC[C@H]1O[C@@H](n2cc(CN3C(=O)/C(=C\c4ccccc4)c4ccccc43)nn2)[C@H](OC(C)=O)[C@@H](OC(C)=O)[C@@H]1OC(C)=O	33.3 µM	24.1 µM	17.9 µM	22.8 µM	24.3 µM
COc1ccc2c(c1)c(/C=N/O)cn2Cc1cn([C@@H]2O[C@H](COC(C)=O)[C@@H](OC(C)=O)[C@H](OC(C)=O)[C@H]2OC(C)=O)nn1	> 200 µM	88.4 µM	> 200 µM	26.2 µM	51 µM
Cc1ccc(/C=C2/C(=O)Nc3ccccc32)cc1	> 100 µM	> 100 µM	> 100 µM	> 100 µM	> 100 µM
O=C(/C=C/c1c[nH]c2ccccc12)c1ccccc1	> 200 µM	> 200 µM	> 200 µM	> 200 µM	> 200 µM
CCC/C=C1\C(=O)N(Cc2cn([C@@H]3O[C@H](COC(C)=O)[C@@H](OC(C)=O)[C@H](OC(C)=O)[C@H]3OC(C)=O)nn2)c2ccccc21	46.3 µM	26.6 µM	40.4 µM	> 100 µM	25 µM
CC(=O)OC[C@H]1O[C@@H](n2cc(CN3C(=O)/C(=C/c4cccs4)c4ccccc43)nn2)[C@H](OC(C)=O)[C@@H](OC(C)=O)[C@@H]1OC(C)=O	36.9 µM	23.4 µM	20.8 µM	48.1 µM	28.1 µM
CC(=O)OC[C@H]1O[C@@H](n2cc(Cn3cc(/C=C4/C(=O)Nc5ccccc54)c4ccccc43)nn2)[C@H](OC(C)=O)[C@@H](OC(C)=O)[C@@H]1OC(C)=O	> 200 µM	> 200 µM	> 200 µM	> 200 µM	22.2 µM
COc1cccc2c1C(=O)c1c(O)c3c(c(O)c1C2=O)C[C@@](O)(C(=O)CO)C[C@@H]3O[C@H]1C[C@H](N)[C@H](O)[C@H](C)O1 [DOXORUBICIN]	7.2 µM	5.4 µM		10.1 µM	6.1 µM
CC(=O)OC[C@H]1O[C@@H](n2cc(CN3C(=O)/C(=C\c4ccc(C)cc4)c4ccccc43)nn2)[C@H](OC(C)=O)[C@@H](OC(C)=O)[C@@H]1OC(C)=O	> 100 µM	9.4 µM	16.5 µM	9 µM	> 100 µM
CC(=O)OC[C@H]1O[C@@H](n2cc(Cn3cc(/C=C4/C(=O)Nc5ccc(F)cc54)c4ccccc43)nn2)[C@H](OC(C)=O)[C@@H](OC(C)=O)[C@@H]1OC(C)=O	> 200 µM	87.4 µM	36.9 µM	62.5 µM	40.4 µM
CC(=O)OC[C@H]1O[C@@H](n2cc(CN3C(=O)/C(=C/C=C/c4ccccc4)c4ccccc43)nn2)[C@H](OC(C)=O)[C@@H](OC(C)=O)[C@@H]1OC(C)=O	> 100 µM	17.1 µM	> 100 µM	12.3 µM	53.2 µM
CC(=O)OC[C@H]1O[C@@H](n2cc(Cn3cc(C(C)=O)c4ccccc43)nn2)[C@H](OC(C)=O)[C@@H](OC(C)=O)[C@@H]1OC(C)=O	> 200 µM	75.2 µM	> 200 µM	> 200 µM	> 200 µM
CC(=O)OC[C@H]1O[C@@H](n2cc(CN3C(=O)/C(=C\C=C\c4ccccc4)c4ccccc43)nn2)[C@H](OC(C)=O)[C@@H](OC(C)=O)[C@@H]1OC(C)=O	98.1 µM	19.5 µM	58.4 µM	25.9 µM	34.1 µM

SMILES	IC50 (HeLa)	IC50 [1]	IC50 (A549)	IC50 [2]	IC50 (MCF7)
COc1ccc(/C=C2\C(=O)N(Cc3cn([C@@H]4O[C@H](COC(C)=O)[C@@H](OC(C)=O)[C@H](OC(C)=O)[C@H]4OC(C)=O)nn3)c3ccccc32)cc1OC	63.4 µM	24.9 µM	23.3 µM	> 100 µM	23.5 µM
CC(=O)OC[C@H]1O[C@@H](n2cc(Cn3cc(/C=C/C(=O)c4c5ccccc5cc5ccccc45)c4ccccc43)nn2)[C@H](OC(C)=O)[C@@H](OC(C)=O)[C@@H]1OC(C)=O	165 µM	58.1 µM	46.8 µM	> 200 µM	44 µM
CC(=O)OC[C@H]1O[C@@H](n2cc(CN3C(=O)/C(=C/c4ccco4)c4ccccc43)nn2)[C@H](OC(C)=O)[C@@H](OC(C)=O)[C@@H]1OC(C)=O	29.9 µM	10 µM	14.5 µM	31.8 µM	29.1 µM
CCC/C=C1/C(=O)N(Cc2cn([C@@H]3O[C@H](COC(C)=O)[C@@H](OC(C)=O)[C@H](OC(C)=O)[C@H]3OC(C)=O)nn2)c2ccccc21	> 100 µM	19.7 µM	24.1 µM	> 100 µM	22.6 µM
CC(=O)OC[C@H]1O[C@@H](n2cc(Cn3cc(/C=C/C(=O)c4cccnc4)c4ccccc43)nn2)[C@H](OC(C)=O)[C@@H](OC(C)=O)[C@@H]1OC(C)=O	> 200 µM	29 µM	39.8 µM	> 200 µM	22.3 µM
CC(=O)OC[C@H]1O[C@@H](n2cc(CN3C(=O)/C(=C\c4ccc5ccccc5c4)c4ccccc43)nn2)[C@H](OC(C)=O)[C@@H](OC(C)=O)[C@@H]1OC(C)=O	> 100 µM	> 100 µM	62.2 µM	80 µM	46.5 µM
COc1ccc2c(c1)c(C=O)cn2Cc1cn([C@@H]2O[C@H](COC(C)=O)[C@@H](OC(C)=O)[C@H](OC(C)=O)[C@H]2OC(C)=O)nn1	> 200 µM	136 µM	106 µM	> 200 µM	> 200 µM
CC(=O)OC[C@H]1O[C@@H](n2cc(CN3C(=O)/C(=C/c4ccccc4)c4ccccc43)nn2)[C@H](OC(C)=O)[C@@H](OC(C)=O)[C@@H]1OC(C)=O	37.1 µM	22.8 µM	20.6 µM	> 100 µM	30.2 µM
CC(=O)OC[C@H]1O[C@@H](n2cc(CN3C(=O)/C(=C\c4cccs4)c4ccccc43)nn2)[C@H](OC(C)=O)[C@@H](OC(C)=O)[C@@H]1OC(C)=O	> 100 µM	22.8 µM	16.1 µM	14.6 µM	36.1 µM
CC(=O)OC[C@H]1O[C@@H](OC(C)=O)[C@H](OC(C)=O)[C@@H](OC(C)=O)[C@@H]1OC(C)=O	> 200 µM	> 200 µM	> 200 µM	> 200 µM	> 200 µM
CC(=O)OC[C@H]1O[C@@H](n2cc(CN3C(=O)/C(=C\c4ccc(N(C)C)cc4)c4ccccc43)nn2)[C@H](OC(C)=O)[C@@H](OC(C)=O)[C@@H]1OC(C)=O	25 µM	10.1 µM	17.7 µM	17 µM	29.8 µM
CC(=O)OC[C@H]1O[C@@H](n2cc(CN3C(=O)/C(=C/c4ccc(N(C)C)cc4)c4ccccc43)nn2)[C@H](OC(C)=O)[C@@H](OC(C)=O)[C@@H]1OC(C)=O	26.3 µM	11.2 µM	19.4 µM	12.7 µM	25.2 µM
CC(=O)OC[C@H]1O[C@@H](n2cc(Cn3cc(C=O)c4ccccc43)nn2)[C@H](OC(C)=O)[C@@H](OC(C)=O)[C@@H]1OC(C)=O	44.5 µM	58.7 µM	> 200 µM	> 200 µM	25.2 µM
CC(=O)OC[C@H]1O[C@@H](n2cc(Cn3cc([N+](=O)[O-])c4ccccc43)nn2)[C@H](OC(C)=O)[C@@H](OC(C)=O)[C@@H]1OC(C)=O	> 200 µM	60.9 µM	93.2 µM	20.5 µM	> 200 µM
CC(=O)OC[C@H]1O[C@@H](n2cc(CN3C(=O)/C(=C\c4ccco4)c4ccccc43)nn2)[C@H](OC(C)=O)[C@@H](OC(C)=O)[C@@H]1OC(C)=O	> 100 µM	16.9 µM	41.1 µM	13.3 µM	38.2 µM
